Measured values reported in the supplement of paper PMC8253809.

How the values were obtained:
[1] = test system: SUDIPGXIX (diffuse intrinsic pontine glioma line); test: EC50 (inflection of fitted growth-inhibition curve) (log10 M)
Summary of the method: (§1)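 Compounds were delivered by pin tool as a 10-point threefold dilution series with a mean top concentration of 35 μM, in triplicate, to patient-derived pHGG/DIPG cell lines and astrocyte controls growing on 1% Geltrex-coated 384-well plates. Incubation lasted 7 days, or 3 days for iAstro, at 37 °C with 5% CO2. EC50 and maximal response (yFin) come from the three- or four-parameter log-logistic fit with the lowest AICc, applied to pooled, log2-transformed CellTiter-Glo luminescence normalised per plate to % activity between solvent (negative) and positive control wells.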

[2] = test system: SUDIPGXXI (diffuse intrinsic pontine glioma line); test: as above
Summary of the method: as §1

[3] = test system: iAstro (astrocyte control); test: as above
Summary of the method: as §1

[4] = test system: SUDIPGXIX; test: maximal growth inhibition (yFin) relative to DMSO / staurosporine; higher = more efficacious
Summary of the method: as §1

[5] = test system: SUDIPGXXI; test: as above
Summary of the method: as §1

[6] = test system: iAstro; test: as above
Summary of the method: as §1

[7] = test system: DIPGX29 (H3.3 K27M diffuse intrinsic pontine glioma line); test: area under dose-response curve of % growth inhibition (log2 RLU vs DMSO / staurosporine), 1e-11 to 1e-4 M (% x log10 M); higher = more growth inhibition
Summary of the method: (§2)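 Area under the curve was derived with the trapezoid rule from a fitted log-logistic curve, switching to a smoothing spline if the sigmoid fit failed. It rested on per-plate % activity between solvent and positive controls, calculated from log2-transformed CellTiter-Glo luminescence after 7 days of exposure (3 days for iAstro) at 37 °C, 5% CO2. Patient-derived pHGG/DIPG lines and astrocytes on 1% Geltrex-coated 384-well plates received a 10-point threefold dilution series, mean top concentration 35 μM, in triplicate.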

[8] = test system: DIPGX37 (H3.3 K27M diffuse intrinsic pontine glioma line); test: as above
Summary of the method: as §2

[9] = test system: DIPGX7 (H3.3 K27M diffuse intrinsic pontine glioma line); test: as above
Summary of the method: as §2

[10] = test system: DIPGX9 (diffuse intrinsic pontine glioma line); test: as above
Summary of the method: as §2

[11] = test system: HABS (astrocyte control); test: as above
Summary of the method: as §2

[12] = test system: HGGX2 (paediatric high-grade glioma line); test: as above
Summary of the method: as §2

[13] = test system: HGGX39 (paediatric high-grade glioma line); test: as above
Summary of the method: as §2

[14] = test system: HGGX42 (H3.3 G34R paediatric high-grade glioma line); test: as above
Summary of the method: as §2

[15] = test system: HGGX6 (H3.3 G34R paediatric high-grade glioma line); test: as above
Summary of the method: as §2

[16] = test system: SUDIPGIV (diffuse intrinsic pontine glioma line); test: as above
Summary of the method: as §2

[17] = test system: SUDIPGVI (diffuse intrinsic pontine glioma line); test: as above
Summary of the method: as §2

[18] = test system: SUDIPGXIII (diffuse intrinsic pontine glioma line); test: as above
Summary of the method: as §2

[19] = test system: SUDIPGXIX; test: as above
Summary of the method: as §2

[20] = test system: SUDIPGXVII (diffuse intrinsic pontine glioma line); test: as above
Summary of the method: as §2

[21] = test system: SUDIPGXXI; test: as above
Summary of the method: as §2

[22] = test system: iAstro; test: as above
Summary of the method: as §2

[23] = test system: HGGX39; test: EC50 (inflection of fitted growth-inhibition curve) (log10 M)
Summary of the method: as §1

[24] = test system: SUDIPGIV; test: as above
Summary of the method: as §1

[25] = test system: HGGX39; test: maximal growth inhibition (yFin) relative to DMSO / staurosporine; higher = more efficacious
Summary of the method: as §1

[26] = test system: SUDIPGIV; test: as above
Summary of the method: as §1

[27] = test system: DIPGX29; test: EC50 (inflection of fitted growth-inhibition curve) (log10 M)
Summary of the method: as §1

[28] = test system: DIPGX29; test: maximal growth inhibition (yFin) relative to DMSO / staurosporine; higher = more efficacious
Summary of the method: as §1

[29] = test system: HGGX2; test: EC50 (inflection of fitted growth-inhibition curve) (log10 M)
Summary of the method: as §1

[30] = test system: HGGX2; test: maximal growth inhibition (yFin) relative to DMSO / staurosporine; higher = more efficacious
Summary of the method: as §1

[31] = test system: DIPGX9; test: EC50 (inflection of fitted growth-inhibition curve) (log10 M)
Summary of the method: as §1

[32] = test system: DIPGX9; test: maximal growth inhibition (yFin) relative to DMSO / staurosporine; higher = more efficacious
Summary of the method: as §1

| SMILES | EC50 (log10 M) [1] | EC50 (log10 M) [2] | EC50 (log10 M) [3] | maximal growth inhibition [4] | maximal growth inhibition [5] | maximal growth inhibition [6] | area under dose-response curve [7] | area under dose-response curve [8] | area under dose-response curve [9] | area under dose-response curve [10] | area under dose-response curve [11] | area under dose-response curve [12] | area under dose-response curve [13] | area under dose-response curve [14] | area under dose-response curve [15] | area under dose-response curve [16] | area under dose-response curve [17] | area under dose-response curve [18] | area under dose-response curve [19] | area under dose-response curve [20] | area under dose-response curve [21] | area under dose-response curve [22] | EC50 (log10 M) [23] | EC50 (log10 M) [24] | maximal growth inhibition [25] | maximal growth inhibition [26] | EC50 (log10 M) [27] | maximal growth inhibition [28] | EC50 (log10 M) [29] | maximal growth inhibition [30] | EC50 (log10 M) [31] | maximal growth inhibition [32] |
| --- | --- | --- | --- | --- | --- | --- | --- | --- | --- | --- | --- | --- | --- | --- | --- | --- | --- | --- | --- | --- | --- | --- | --- | --- | --- | --- | --- | --- | --- | --- | --- | --- |
| COc1ccc(Cn2ccc3ccc(C(=O)NO)cc32)cc1 | -4.78 | -4.78 | -4.67 | 31.4% | 117% | 47.6% | 24.9 | 30.6 | 20.3 | 19.1 | 11.9 | 14.8 | 10.3 | 25.8 | 5.76 | 6.64 | 2.84 | 30.1 | 24.5 | 7.72 | 91.2 | 47 |  |  |  |  |  |  |  |  |  |  |
| N=C(N)c1ccc(N=NNc2ccc(C(=N)N)cc2)cc1 [BERENIL] |  | -5.13 |  |  | 46.9% |  | 41.8 | 90.7 | 20.8 | 5.74 | 0.995 | 0 | 84.7 | 0 | 52.7 | 43.8 | 15.1 | 14.9 | 0 | 13.8 | 53.1 | 1.3 | -5.18 | -5.18 | 68.7% | 38.7% |  |  |  |  |  |  |
| CO[C@H]1C(=O)[C@]2(C)[C@@H](OC)C[C@H]3OC[C@@]3(OC(C)=O)[C@H]2[C@H](OC(=O)c2ccccc2)[C@]2(O)C[C@H](OC(=O)[C@H](O)[C@@H](NC(=O)OC(C)(C)C)c3ccccc3)C(C)=C1C2(C)C [CABAZITAXEL] |  |  |  |  |  |  | 71.3 | 119 | 68.4 | 141 | 147 | 156 | 123 | 102 | 78.2 | 255 | 37.8 | 29.9 | 120 | 50.5 | 515 | 79.4 |  |  |  |  |  |  |  |  |  |  |
| CC(C)[C@H]1C(=O)N[C@@H](CCCNC(=N)N)C(=O)NCC(=O)N[C@@H](CC(=O)O)C(=O)N[C@H](Cc2ccccc2)C(=O)N1C [CILENGITIDE] |  |  |  |  |  |  | 10.1 | 4.08 | 15.6 | 8.99 | 3.86 | 8.33 | 4.22 | 11.4 | 2.93 | 4.77 | 0 | 0 | 0 | 4.38 | 1.67 | 0 |  |  |  |  |  |  |  |  |  |  |
| CC(C)(C)c1nc(-c2cccc(NS(=O)(=O)c3c(F)cccc3F)c2F)c(-c2ccnc(N)n2)s1 [DABRAFENIB] |  |  |  |  |  |  | 3.8 | 11.5 | 20.8 | 3.09 | 19.7 | 0 | 25.7 | 7.39 | 21.9 | 18.7 | 2.65 | 0.214 | 0 | 3.63 | 13.7 | 3.65 |  |  |  |  |  |  |  |  |  |  |
| CCN(c1cc(-c2ccc(CN3CCOCC3)cc2)cc(C(=O)NCc2c(C)cc(C)[nH]c2=O)c1C)C1CCOCC1 [EPZ-6438] |  |  |  |  |  |  | 4.38 | 0 | 5.15 | 0 | 12.9 | 0 | 1.99 | 0 | 0 | 9.17 | 0 | 2.24 | 0.349 | 4.66 | 6.79 | 5.32 |  |  |  |  |  |  |  |  |  |  |
| CC12CC3CC(C)(C1)CC(N)(C3)C2 [MEMANTINE] |  | -4.68 |  |  | 32.5% |  | 3.62 | 1.76 | 13.8 | 1.54 | 2.39 | 2.91 | 0.964 | 0.942 | 2.25 | 6.14 | 0 | 0 | 1.83 | 1.91 | 21.5 | 0.365 |  |  |  |  |  |  |  |  |  |  |
| N[C@H]1C[C@@H]1c1ccc(-c2cccc(O)c2)cc1 [OG-L002] | -6.55 |  |  | 87.2% |  |  | 67.6 | 78.6 | 138 | 24.4 | 7.06 | 81.6 | 78.2 | 100 | 51.3 | 174 | 3.43 | 0 | 222 | 103 | 7.31 | 35.4 |  |  |  |  |  |  |  |  |  |  |
| O=C([C@@H](Cc1cccc(C(F)(F)F)c1)NS(=O)(=O)c1cc(F)c2c(c1)CCNC2)N1CCCC1 [PFI-2] |  | -4.58 |  |  | 24.8% |  | 14 | 0.851 | 4.47 | 0 | 5.29 | 6.57 | 4.9 | 0 | 5.68 | 4.77 | 8.26 | 1.68 | 0 | 3.09 | 14.4 | 6.82 |  |  |  |  | -4.51 | 27.5% |  |  |  |  |
| CCOC(=O)c1ccc(C#Cc2ccc3c(c2)C(C)(C)CCS3)nc1 [TAZAROTENE] |  | -5.98 | -4.78 |  | 107% | 21.6% | 10.3 | 19.5 | 5.61 | 25.9 | 0 | 12.3 | 27.7 | 11.6 | 15.5 | 45.5 | 0 | 14.7 | 0 | 12.6 | 230 | 17 |  |  |  |  |  |  |  |  |  |  |
| CC1=C(/C=C/C(C)=C/C=C/C(C)=C/C(=O)O)C(C)(C)CCC1 [TRETINON] |  | -7.13 |  |  | 94.3% |  | 40.4 | 46.7 | 16.1 | 97.5 | 0 | 71.1 | 42.5 | 28.5 | 27.5 | 44.1 | 22 | 0 | 14.9 | 19.9 | 296 | 14.6 |  |  |  |  |  |  | -6.92 | 24.3% |  |  |
| O=C(CCCCCCC(=O)Nc1ccc([C@H]2O[C@@H](CSc3nc(-c4ccccc4)c(-c4ccccc4)o3)C[C@@H](c3ccc(CO)cc3)O2)cc1)NO [TUBACIN] |  | -4.84 | -4.6 |  | 51.8% | 29.5% | 8.41 | 3.94 | 22.1 | 5.5 | 4.17 | 3.24 | 4.96 | 0 | 0 | 0.838 | 1.17 | 0 | 8.78 | 1.78 | 43.2 | 17 |  |  |  |  |  |  |  |  |  |  |
| CN1CCc2c(c3ccccc3n2Cc2ccc(C(=O)NO)cc2)C1 [TUBASTATIN A] |  | -4.83 | -4.7 |  | 99.5% | 54% | 16.3 | 24.4 | 5.69 | 32.9 | 14.5 | 21.2 | 24.6 | 9.08 | 6.92 | 24.1 | 0 | 6.63 | 24.1 | 17.2 | 82.4 | 37.8 |  | -4.8 |  | 30.1% |  |  |  |  | -4.76 | 29.3% |
| C[C@]1(c2nc3c(C(N)=O)cccc3[nH]2)CCCN1 [VELIPARIB] |  | -4.72 |  |  | 99.9% |  | 0 | 0 | 1.28 | 6.96 | 3.94 | 1.41 | 0 | 0 | 0 | 6.66 | 0 | 0 | 7.71 | 9.93 | 100 | 7.64 |  |  |  |  |  |  |  |  |  |  |
| CS(=O)(=O)c1ccc(C(=O)Nc2ccc(Cl)c(-c3ccccn3)c2)c(Cl)c1 [VISMODEGIB] |  | -4.83 |  |  | 34.8% |  | 6.39 | 7.51 | 5.14 | 2.06 | 0 | 1.06 | 11.1 | 0.511 | 11.3 | 6.55 | 0 | 2.44 | 0 | 7.7 | 28.8 | 25.8 |  |  |  |  |  |  |  |  |  |  |
| O=c1ncccn1[C@@H]1O[C@H](CO)[C@@H](O)[C@H]1O [ZEBULARINE] |  |  |  |  |  |  | 5.5 | 19.9 | 17.7 | 11.6 | 4.92 | 20 | 2.92 | 15.7 | 2.58 | 12 | 13.2 | 32.2 | 5.55 | 7.86 | 15.3 | 6.4 |  |  |  |  |  |  |  |  |  |  |
